Experimental data as given in patent US20070122395A1, “Genetic and pharmacological regulation of antidepressant-sensitive biogenic amine transporters through PKG/p38 map kinase” (Vanderbilt University, priority 2005, published 2007).
Values joined by “and” are separate entries in the source; they are usually repeats but may differ in a detail not shown here. Equal values may be shown once. Read-outs that look alike come from different tables or passages of the source.

Legend:
[1] = tested on: rat SERT expressed by RBL-2H3 cells; test: [3H]5-HT transport assay in RBL-2H3 cells; format: cell-based; details: for blockade of NECA-induced 5-HT uptake: ODQ 10 μm, NECA 1 μm; for blockade of 8-Br-cGMP stimulation of SERT: data not shown
[2] = target: T1, native SERT in RN46A cells (Rattus norvegicus, UniProt P31652); test: [3H]5-HT transport assay in RN46A cells; format: cell-based; details: for blockade of anisomycin-stimulated 5-HT uptake: SB203580, ODQ 10 μm, H8 0.1 μm
T1 construct: derived from rat E13 raphenucleus, that expresses native SERT; endogenous in cells; host or cells: RN46A cells
T1 sequence (P31652 whole entry): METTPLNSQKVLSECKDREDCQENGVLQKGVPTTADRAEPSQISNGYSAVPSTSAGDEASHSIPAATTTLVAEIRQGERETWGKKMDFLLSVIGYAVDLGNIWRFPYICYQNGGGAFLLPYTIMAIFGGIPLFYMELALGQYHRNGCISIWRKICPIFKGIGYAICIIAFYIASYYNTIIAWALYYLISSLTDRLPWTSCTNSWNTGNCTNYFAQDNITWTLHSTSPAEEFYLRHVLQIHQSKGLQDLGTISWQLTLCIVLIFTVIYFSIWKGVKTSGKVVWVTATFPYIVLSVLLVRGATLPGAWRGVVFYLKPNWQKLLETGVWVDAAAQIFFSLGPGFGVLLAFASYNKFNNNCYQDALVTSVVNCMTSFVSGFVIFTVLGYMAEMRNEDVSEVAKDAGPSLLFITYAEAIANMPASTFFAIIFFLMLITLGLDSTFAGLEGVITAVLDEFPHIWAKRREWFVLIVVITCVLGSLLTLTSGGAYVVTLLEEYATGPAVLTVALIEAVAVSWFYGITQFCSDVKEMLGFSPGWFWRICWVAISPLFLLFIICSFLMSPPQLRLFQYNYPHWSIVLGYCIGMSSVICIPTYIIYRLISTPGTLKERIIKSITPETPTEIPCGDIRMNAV

[3] = tested on: rat SERT expressed by RBL-2H3 cells; details: Zhu et al., 2004a,b; cited from earlier work
[4] = tested on: five hSERT variants that failed to elicit uptake increases; test: [125I]RTI-55 surface binding to intact transfected HeLa cells, non-responsive variants; format: cell-based, human; details: H8
[5] = tested on: lymphocytes homozygous for the Gly variant (hSERT Gly56); test: 5-HT uptake in genotyped lymphocyte lines; format: cell-based, human; details: H8 versus 8BrcGMP; SB203580 versus anisomycin
Description: Genotyping and Lymphocyte Studies. Lymphocyte lines were derived from autistic pedigrees recruited by Susan E. Folstein (Johns Hopkins Univ), from the Autism Genetics Resource Exchange (AGRE) collection (www.agre.org/), and from the NIMH Human Genetics Initiative Repository (www.nimhgenetics.org/) at Rutgers University. DNA from lymphoblastoid cell lines was genotyped via TaqMan-based allelic discrimination, using an Applied Biosystems (Foster City, Calif.) Assay-by-Design and independently confirmed by PCR and direct sequence analysis. […] Lymphocyte were pelleted at 1500 rpm, 5 min and washed with KRH assay buffer. A total of 1×10^6 cells in triplicate were pre-warmed (37° C.) in a shaking water bath (10 min) in 12×75 polypropylene tubes in KRH buffer containing 100 μM pargyline and 100 μM ascorbic acid+/−modifiers.

hSERT [6] = target: T2, hSERT (Homo sapiens, UniProt P31645); test: [125I]RTI-55 binding to intact transfected HeLa cells (surface and total SERT); format: cell-based; details: paroxetine as displacer; data not shown
T2 construct: The full-length cDNA encoding hSERT in the mammalian expression vector pcDNA3.1; expressed in transfected cells; host or cells: HeLa

hSERT [7] = target: T2, hSERT; test: [3H]5-HT transport (SERT uptake) assay in transfected HeLa cells; format: cell-based
Procedure: (§1) Transfection and Transport Studies. HeLa cells, maintained at 37° C. in a 5% CO2 humidified incubator, were grown in complete medium (Dulbecco's Modified Eagle's Medium (DMEM, Invitrogen), 10% fetal bovine serum, 2 mM L-glutamine, 100 units/ml penicillin, and 100 μg/ml streptomycin).
(§2) Transport, Binding, Biotinylation and Phosphorylation Studies. […] To establish levels and biosynthetic progression of hSERT protein produced from mutant cDNAs, HeLa cells were plated in 6-well dishes at 500,000 cells per well and transfected 12 h later. Twenty four hours after transfection, whole cell detergent extracts were blotted for hSERT (mAb Technologies, Inc., 1:1000) using enhanced chemiluminescence (ECL, Amersham) detection.

SERT in RBL-2H3 cells = target: T3, SERT in RBL-2H3 cells (Rattus norvegicus, UniProt P31652); test: [125I]RTI-55 binding to intact RBL-2H3 cells; format: cell-based; details: for SERT surface density (5-HT-displaceable [125I]RTI-55 binding): anisomycin 1 μm, fostriecin 5 nM, NECA 1 μm, 10 min
T3 construct: As with rat SERT expressed by RBL-2H3 cells; host or cells: RBL-2H3 cells (intact cells, 4° C.)
T3 sequence (P31652 whole entry): as above
Description: Binding was terminated by two rapid washes with ice-cold PBS/CM.

p38 MAPK = format: cell-based, rat
Procedure: Assays of p38 MAPK Activation. […] Medium was removed by aspiration, and cells were washed once with KRH buffer and then incubated in triplicate at 37° C. in KRH buffer with or without p38 MAPK activators for 5-10 min. Assay buffer was removed, and cells were immediately fixed with fresh 4% formaldehyde (Sigma) in PBS for 20 min at room temperature and washed four times with 1×PBS containing 0.1% Triton X-100 (Sigma) (5 min per wash) prior to 1 h of blocking with Odyssey blocking buffer (Li-Cor Biosciences, Lincoln, Nebr.). RBL-2H3 cells were subsequently probed with dual phosphorylated (Thr(P) and Tyr(P)) p38 MAPK polyclonal antibody (Cell Signaling; 1:400) in Odyssey blocking buffer with gentle mixing for 2 h at room temperature. Cells were then washed four times with 1×PBS containing 0.1% Tween 20 (Sigma) for 5 min. Bound antibody was detected with fluorescence-labeled secondary antibody-Alexa Fluor® 680 (avoiding exposure to light; 1:200 in Odyssey Blocking Buffer, Molecular Probes, Inc., Eugene, Oreg.) for 1 h. After four washes with 1×PBS, 0.1% Tween 20, the plate was scanned, and the captured image of the signal was processed and quantified with the Odyssey™ Infrared Imaging System (Li-Cor Biosciences). For UV radiation to activate p38 MAPK, plates seeded with cells were placed in a UV source (UV Stratalinker 1800, Stratagene, La Jolla, Calif.) that was preset to deliver 4×10^4 μJ/cm^2 at room temperature.

hSERT variants = test: 5-HT transport regulation by phorbol ester in transfected HeLa cells, all variants; format: cell-based, human; details: each hSERT variant; slightly greater for Thr4Ala, Lys605Asn, Pro621Ser
Procedure: as §1, §2

NCCc1c[nH]c2ccc(O)cc12 = tested on: T4, NCCc1c[nH]c2ccc(O)cc12; test: cells, lysate or membranes; format: cell-based, human; details: other: saturation kinetics of 5-HT transport, hSERT; pH 7.4; 37.0 °C
T4 construct: The full-length cDNA encoding hSERT in the mammalian expression vector pcDNA3.1; expressed in transfected cells; host or cells: HeLa

human NET = test: monoamine uptake assay in transfected CHO cells; format: cell-based; details: SB203580 preincubation 15 min
Procedure: Cell Culture and Transfection. […] CHO cells (ATCC, Manassas, Va.) were maintained at 37° C. in Dulbecco's MEM containing 10% fetal bovine serum, 1% L-Glu, 100 IU/ml penicillin, and 100 μg/ml streptomycin. For comparison of the response of monoamine transporters to p38 MAPK activation, CHO cells were transfected with cDNAs for hSERT, hDAT, or hNET (100 ng/well for a 24-well plate). Transfections of CHO cells were performed using TransIT-LT1 Transfection Reagent (Mirus, Madison, Wis.) according to the manufacturer's protocol (0.3 μl/well). hSERT, hDAT, or hNET cDNAs were preincubated with the reagent at ambient temperature for 30 min before being added to plated CHO cells. Cells were cultured for 24 h after transfection. The transfection mixture was removed just prior to assay.
CHO cells were plated at 20,000 cells/well 16-24 h before transfection, and the uptake assay was performed 24 h following the transfection. […] Medium was removed by aspiration, and cells were washed once with Krebs-Ringer HEPES (KRH) buffer containing 130 mM NaCl, 1.3 mM KCl, 2.2 mM CaCl2, 1.2 mM MgSO4, 1.2 mM KH2PO4, 1.8 g/liter glucose, 10 mM HEPES, pH 7.4. […] Cells were solubilized with 0.5 ml of Microscint 20 (PerkinElmer Life Sciences), and tritium-labeled monoamine accumulation was quantitated using a TopCount plate scintillation counter (PerkinElmer Life Sciences).

hSERT Pro339Leu (P339L) = hSERT Pro339Leu (P339L) (Homo sapiens, UniProt P31645, P339L)
Procedure: as §1, §2

hSERT Ile425Val (I425V) = target: T5, hSERT Ile425Val (I425V) (Homo sapiens, UniProt P31645, I425V); test: [3H]5-HT transport (SERT uptake) assay in transfected HeLa cells; format: cell-based
T5 construct: The full-length cDNA encoding hSERT in the mammalian expression vector pcDNA3.1; expressed in transfected cells; host or cells: HeLa
Procedure: as §1, §2

[8] = pretreatment, then anisomycin 1 μm 10 min, SB compounds, curcumin, PD98059, ODQ 10 μm, H8 0.1 μm, DT-2 1.0 μm, fostriecin 5 nM, MTSET 10 mM, siRNA 100 nM 48 h

OO [H2O2, hydrogen peroxide]
stimulation of 5-HT transport activity [1]: stimulated 5-HT transport to a level comparable with 1 μm anisomycin

O=c1onc2cnc3ccccc3n12 [ODQ, 1H-(1,2,4)-oxadiazolo[4,3-a]quinoxalin-1-one]
blockade of anisomycin-stimulated 5-HT uptake ([2]; RN46A, DT-2 1.0 μm): neither agent attenuated anisomycin stimulation
blockade of anisomycin-stimulated 5-HT uptake / SERT activity [1]: neither agent attenuated anisomycin stimulation
blockade of NECA-induced 5-HT uptake ([1]; H8 0.1 μm, DT-2 1.0 μm): abolish
blockade of AR stimulation of SERT [3]: completely abolished

CNCCNS(=O)(=O)c1cccc2cnccc12 [H8, N-[2-(methylamino)ethy]-5-isoquinoline sulfonamide]
blockade of anisomycin-stimulated 5-HT uptake ([2]; RN46A, DT-2 1.0 μm): failed to attenuate
blockade of NECA-induced 5-HT uptake ([1]; H8 0.1 μm, DT-2 1.0 μm): abolish
blockade of 8-Br-cGMP stimulation of SERT [1]: blocked
blockade of anisomycin-stimulated 5-HT uptake / SERT activity [1, 8]: failed to attenuate
blockade of 8BrcGMP-induced reduction in surface density [4]: completely blocked
antagonist sensitivity of stimulated 5-HT transport [5]: sensitive to H8
total [125I]RTI-55 binding (hSERT [6]): no effects on total binding
antagonism of 8BrcGMP stimulation of 5-HT transport (hSERT [7]): completely antagonized

CCc1nc(-c2ccc(OC)cc2)[nH]c1-c1ccncc1 [SB202474]
blockade of anisomycin-stimulated 5-HT uptake / SERT activity [1]: lacked antagonistic activity

C[N+](C)(C)CCSS(C)(=O)=O [MTSET, [2-(Trimethylammonium)ethyl]methanethiosulfonate]
blockade of anisomycin-stimulated 5-HT uptake / SERT activity [1]: abolished

Oc1ccc(-c2nc(-c3ccc(F)cc3)c(-c3ccncc3)[nH]2)cc1 [SB202190]
blockade of anisomycin-stimulated 5-HT uptake / SERT activity [1]: blocked anisomycin stimulation of SERT

COc1cccc(-c2cc(=O)c3ccccc3o2)c1N [PD98059]
blockade of anisomycin-stimulated 5-HT uptake / SERT activity [1]: failed to block

YGRKKRRQRRRPP-LRK5H-amide [DT-2]
sensitivity of 8-bromo-cGMP-induced 5-HT transport to PKG antagonist ([2]; DT-2 1.0 μm): sensitive
blockade of anisomycin-stimulated 5-HT uptake ([2]; RN46A, DT-2 1.0 μm): failed to attenuate
blockade of NECA-induced 5-HT uptake ([1]; H8 0.1 μm, DT-2 1.0 μm): abolish
blockade of 8-Br-cGMP stimulation of SERT [1]: blocked
blockade of anisomycin-stimulated 5-HT uptake / SERT activity [1, 8]: failed to attenuate

CCNC(=O)[C@H]1O[C@@H](n2cnc3c(N)ncnc32)[C@H](O)[C@@H]1O [NECA]
total SERT (paroxetine-displaceable [125I]RTI-55 binding) (SERT in RBL-2H3 cells; acute treatment): does not change
SERT surface density (5-HT-displaceable [125I]RTI-55 binding) (SERT in RBL-2H3 cells): significant increase
level of p38 MAPK phosphorylation stimulation (p38 MAPK; 5 min treatment): comparable to stimulation achieved with 8-bromo-cGMP
total p38 MAPK levels (p38 MAPK; data not shown): No changes

CCCCCCCCCCCCCC(=O)O[C@@H]1[C@@H](C)[C@@]2(O)[C@@H](C=C(CO)C[C@]3(O)C(=O)C(C)=C[C@@H]23)[C@@H]2C(C)(C)[C@]12OC(C)=O [β-PMA]
downregulation of 5-HT transport following β-PMA, relative to hSERT (hSERT variants): equal to or slightly greater
downregulation of 5-HT transport activity (hSERT [7]): ~40%

hSERT (Homo sapiens)
Km (NCCc1c[nH]c2ccc(O)cc12): 1.00+/−0.47 μM and 1.00+0.17 μM

COc1cc(/C=C/C(=O)CC(=O)/C=C/c2ccc(O)c(OC)c2)ccc1O [curcumin]
blockade of anisomycin-stimulated 5-HT uptake / SERT activity [1]: lacked antagonistic activity

C[S+]([O-])c1ccc(-c2nc(-c3ccc(F)cc3)c(-c3ccncc3)[nH]2)cc1 (stereo not shown) [SB203580]
blockade of anisomycin stimulation of NET (human NET): blocking stimulation back to basal levels

C[C@@](O)(/C=C/[C@H]1CC=CC(=O)O1)[C@@H](C[C@@H](O)\C=C/C=C\C=C\CO)OP(=O)(O)O [fostriecin]
5-HT uptake at higher concentrations [1]: inhibit basal 5-HT uptake
blockade of anisomycin-stimulated 5-HT uptake / SERT activity [1]: completely blocks
SERT surface density (5-HT-displaceable [125I]RTI-55 binding) (SERT in RBL-2H3 cells): did not impact the binding
blockade of NECA-induced enhancement of SERT surface density (SERT in RBL-2H3 cells; concentration that completely blocks anisomycin stimulation): fails to block

O=C1C(Nc2ccccc2)=CC(=O)c2ncccc21 [LY83583]
blockade of anisomycin-stimulated 5-HT uptake ([2]; RN46A, DT-2 1.0 μm): neither agent attenuated anisomycin stimulation
blockade of anisomycin-stimulated 5-HT uptake / SERT activity [1, 8]: neither agent attenuated anisomycin stimulation
blockade of AR stimulation of SERT [3]: completely abolished

bisindolylmaleimide [BIM]
blockade of β-PMA downregulation (hSERT [7]; BIM 1 μM): blocked

COC[C@@H]([C@H](O)[C@H](O)C(=O)NCC[C@H](C)c1nc(/C=C/C[C@@H]2O[C@]3(C[C@@H](O)[C@@H]2C)O[C@H]([C@H](C[C@H](O)[C@H](C)[C@H](O)[C@H](C)/C=C(C)/C(C)=C/C=C/C(C)=C\C#N)OC)[C@H](OP(=O)(O)O)C3(C)C)co1)N(C)C [calyculin A]
basal 5-HT uptake ([1]; calyculin A 20 nM): fails to diminish
blockade of anisomycin stimulation of SERT ([1]; calyculin A 20 nM, 15 min preincubation): completely blocks
5-HT uptake at higher concentrations ([1]; calyculin A 100 nM, fostriecin higher concentrations): inhibits both basal and anisomycin-stimulated 5-HT uptake

NCCc1c[nH]c2ccc(O)cc12 [5-HT, 5-hydroxytryptamine]
Km ([2]; read-out: SERT Km for 5-HT, RN46A, vehicle): 0.799 ± 0.097 µM
Km ([1]; read-out: SERT Km for 5-HT, RBL-2H3, vehicle): 1.06 ± 0.145 µM
5-HT Vmax (hSERT Pro339Leu (P339L)): 3.0+/−1.2 % of hSERT
5-HT Vmax (hSERT Pro339Leu (P339L); saturation kinetics): 1.2 ± 0.11 fmol/well/min
5-HT Vmax (hSERT Ile425Val (I425V)): 190+/−28 % of hSERT
5-HT Vmax (hSERT Ile425Val (I425V); saturation kinetics): 789.5+28 fmol/well/min
5-HT Vmax (hSERT [7]; saturation kinetics, hSERT): 416.2+19 fmol/well/min
